Data as given in article PMC10669052, “Exploring Differences in Pharmacometrics of Rabeprazole between Genders via Population Pharmacokinetic–Pharmacodynamic Modeling” (Biomedicines, 2023).
In brackets after ≈: the same amount, converted by molar mass. Read-outs that look alike come from different tables or passages of the source.

Experiments:
[1] = Population pharmacokinetic model (three sequential absorption with Tlag, two-compartment; Phoenix NLME); assay type: in vivo, human; details: for CL/F: both sexes, human, plasma, oral, 10 mg, read-out: tvCLc/F (typical value, central compartment clearance) (converted)
Method: Construction and analysis of the population pharmacokinetic model for rabeprazole were performed using a non-linear mixed effects model approach using Phoenix NLME (version 8.4, Pharsight, Certara Inc., Princeton, NJ, USA) software. An estimation of population pharmacokinetic parameters for rabeprazole was performed using the first-order conditional estimates method with extended least squares estimation (with ŋ–ε interaction). The development of the rabeprazole population pharmacokinetic model was largely performed in two steps. First, a basic structural model was established that could explain the plasma concentration of rabeprazole following its oral administration. This included a number of basic compartments, whether to reflect the lag time (Tlag) associated with rabeprazole oral absorption, the mechanistic structuring involved in the absorption process (including multiple absorption), or the selection of relevant error models to account for residual and IIV. Thus, in establishing the model, the values obtained using the NCA calculations were reflected as the initial parameter values, which accelerated the convergence of the final parameters and enabled its effective modeling. Second, a search was performed for model-applicable effective covariates relevant to the inter-individual rabeprazole pharmacokinetic variation modeling. This was achieved by applying stepwise candidate covariates to the IIVs of the pharmacokinetic parameters reflected in the model. Gender and individual physiological and biochemical factors were considered potential effective covariates and treated as categorical and continuous data, respectively, before application priorities were determined based on the results of the previous correlation screening. Appropriate models for each step were selected and performed using various statistical significance tools derived from Phoenix NLME, including Akaike’s information criterion (AIC), twice the negative log-likelihood (−2LL), and goodness-of-fit (GOF) plots, whereas the significance of the total number of parameters applied to the model (increased or decreased degrees of freedom) was also considered. Significance was determined using a Chi-square distribution p value of 0.05 (for forward selection) and 0.01 (for backward elimination) at −2LL and objective function value (OFV). The adequacy of the rabeprazole population pharmacokinetic model was verified using GOF (including distribution of residuals), visual predictive check (VPC), and bootstrapping processes. Approaches to each tool for model verification are presented in Supplementary Information S6.
The structure of the rabeprazole population pharmacokinetic model can be explained as two compartments, each with three sequential first-order absorption and Tlag values. As for the basic compartments, significant model improvements (−2LL reduction of p < 0.05 and/or 0.01) were confirmed in two-compartment structures rather than in one, whereas the −2LL increased in three- or more compartment structures alongside the total number of parameters. As a result, the plasma rabeprazole concentration profiles could be explained by its distribution in the central and peripheral compartments with two kinetics in the body. Regarding the delayed absorption pattern of rabeprazole during the absorption phase, several structural absorption compartment models have been attempted, such as the Tlag reflection model, the non-sequential two absorption model (having two or more absorption points with consideration of bioavailability), and the sequential absorption model (via the application of two or more absorption rate constant parameters between successive absorption compartments). In addition, mathematical transformation models, such as Weibull absorption, saturation, zero-order, and mean transit time (MTT) have also been attempted. […]

clinical = details: for AUC / AUC(0-inf) / AUCextrap / Cmax / MRT / Tmax / Vd/F / half-life: human, in vivo, po
Method: Analysis of biochemical parameters was performed on all subjects participating in the clinical trial and the methods are presented in Supplementary Information S1. Information relating to the selection and progress of clinical trial participants is presented in Supplementary Information S2, and information on the clinical trial design and sampling is presented in Supplementary Information S3. The clinical trial protocol was thoroughly reviewed and officially approved (approval number: MB22-002; approved on 15 February 2022) by the Ministry of Food and Drug Safety (Cheongju-si, Republic of Korea). NCA was used to calculate the rabeprazole pharmacokinetic parameters for males and females before a comparison of rabeprazole pharmacokinetics was performed between genders to determine any significant rabeprazole pharmacokinetic parameters in males and females. Pharmacokinetic parameters calculated by NCA were estimated based on plasma concentration values over time after orally administering a 10 mg rabeprazole enteric-coated tablet. Information on the analytical method applied to quantify rabeprazole among plasma samples is briefly presented in Supplementary Information S4, whereas the methods for calculating pharmacokinetic parameters using NCA are presented in Supplementary Information S5. An additional NCA analysis was performed based on the normalized rabeprazole plasma concentration values for body weight, which is one of the major physiological differences between genders that has been frequently applied in past pharmacokinetic comparative studies between genders, and the results were categorized and compared by gender. The significant differences between genders were compared using a two-tailed t test, with significance determined at a p value of 0.05.
43 Supplementary Information 3
45 Clinical trial design and sampling
46 This bioequivalence investigation was performed as randomized, single-dose, open-label,
47 crossover, and two-way studies (with a washout period of 7 days). Prior to the clinical trial,
49 Minneapolis, MN, USA) installed into a vein on the arm or back of the hand, and 6 mL of blank
50 blood was collected. Then, all subjects were orally administered a single 10 mg rabeprazole
51 enteric-coated tablet along with 150 mL of water. Subjects had fasted for more than 10 h before
52 administration. Blood sampling from subjects was performed at a total of 13 specific time
53 points post-dose: Before administration (0 h) and at 1, 2, 2.5, 3, 3.5, 4, 4.5, 5, 5.5, 6, 7, 8, and
54 10 h after oral administration. The sampling method was as follows: To completely remove the
55 heparinized saline solution remaining in the venous catheter during blood collection,
56 approximately 1 mL of blood was collected and discarded each time, and approximately 6 mL
57 of blood was collected and placed in sodium heparinized vacutainer tubes (BD, Franklin Lakes,
58 NJ, USA) with the subject management number and blood collection time written on them.
59 After each blood draw, a saline solution for injection (containing heparin for injection) was
60 administered to prevent the blood remaining in the intravenous catheter from clotting. The
61 collected blood was centrifuged at 3,000 ×g for 10 min in a centrifuge set at 4 °C, and then
62 approximately 1 mL of plasma was taken, transferred to an Eppendorf tube (Eppendorf, […]

gastric pH = assay: Pharmacodynamic model (sigmoid Emax with baseline) of gastric pH versus rabeprazole plasma concentration; assay type: in vivo, human; details: sigmoid Emax model with baseline fitted to digitized gastric pH vs plasma concentration data
Excerpt: The pharmacodynamic model was established based on rabeprazole plasma concentration-measured drug efficacy information (quantified using Web-plot-digitizer (version 4.6)), according to the rabeprazole exposure. The efficacy of rabeprazole was indicated by changes in gastric pH, which was related to plasma rabeprazole selectively inhibiting H^+/K^+-ATPase in gastric parietal cells, thereby increasing intragastric pH. Pharmacodynamic predictions for rabeprazole were achieved by structuring the effect compartment related to the rabeprazole pharmacokinetic profile in the central compartment. Simply, the change in the plasma pharmacokinetic profile over time after administering rabeprazole is directly related to the change in drug efficacy. Therefore, it could be expanded and implemented as a pharmacodynamic model, whereby the time–drug effect after exposure to rabeprazole can be quantified. The established and validated population pharmacokinetic model structure and parameter values associated with rabeprazole were fixed as representative values of the population before being expanded into a model to predict the pharmacodynamics of rabeprazole. This was conducted to explore the effect of any differences in the absorption rate of rabeprazole between genders.

[2] = final population PK model, Estimate
[3] = population PK model estimate as quoted in text

For `COCCCOc1ccnc(C[S+]([O-])c2nc3ccccc3[nH]2)c1C` (centres unmarked) [rabeprazole, Rabeprazole], the “dKa3dBSA (quantitative correlation value between Ka3 and body surface area)” value ([1]; Bootstrap (n = 1000) Median) was −0.95, the “dTlagdGender (quantitative correlation value between Tlag and gender)” value ([1]; Bootstrap (n = 1000) Median) was 0.67 and the “tvCLp/F (typical value, peripheral compartment clearance)” value ([1]; Bootstrap (n = 1000) Median) was 5.38 L/h. The “tvKa1 (first sequential absorption rate constant)” value ([1]; Bootstrap (n = 1000) Median) was 1.89 h⁻¹, the “tvKa2 (second sequential absorption rate constant)” value ([1]; Bootstrap (n = 1000) Median) was 2.03 h⁻¹ and the “tvKa3 (third sequential absorption rate constant)” value ([1]; Bootstrap (n = 1000) Median) was 3.26 h⁻¹. For the same compound, the “tvTlag (typical value, lag time)” value ([1]; Bootstrap (n = 1000) Median) was 1.55 h, the “tvVc/F (typical value, central compartment distribution volume)” value ([1]; Bootstrap (n = 1000) Median) was 10.06 L and the “tvVp/F (typical value, peripheral compartment distribution volume)” value ([1]; Bootstrap (n = 1000) Median) was 11.30 L. For the same compound, the “ε (residual error)” value ([1]; Bootstrap (n = 1000) Median) was 0.35, the “ω^2CLc/F (inter-individual variability)” value ([1]; Bootstrap (n = 1000) Median) was 0.14 and the “ω^2Ka1 (inter-individual variability)” value ([1]; Bootstrap (n = 1000) Median) was 0.00. The “ω^2Ka2 (inter-individual variability)” value ([1]; Bootstrap (n = 1000) Median) was 0.00, the “ω^2Ka3 (inter-individual variability)” value ([1]; Bootstrap (n = 1000) Median) was 1.82 and the “ω^2Tlag (inter-individual variability)” value ([1]; Bootstrap (n = 1000) Median) was 0.23. The “ω^2Vc/F (inter-individual variability)” value ([1]; Bootstrap (n = 1000) Median) was 1.55, the CL/F ([1]; Bootstrap (n = 1000) Median) was 424 mL/min and the CL/F [1, 2] was 428 mL/min. For the same compound, the “dKa3dBSA (quantitative correlation value between Ka3 and body surface area)” value [1, 2] was −1.11, the “tvCLp/F (typical value, peripheral compartment clearance)” value [1, 2] was 5.45 L/h and the “tvKa1 (first sequential absorption rate constant, dosing depot–depot 1)” value [1, 2] was 1.91 h⁻¹. The “tvKa2 (second sequential absorption rate constant, depot 1–depot 2)” value [1, 2] was 2.43 h⁻¹, the “tvKa3 (third sequential absorption rate constant, depot 2–central compartment)” value [1, 2] was 3.34 h⁻¹ and the “tvTlag (typical value, lag time)” value [1, 2] was 1.56 h. For the same compound, the “tvVc/F (typical value, central compartment distribution volume)” value [1, 2] was 10.31 L, the “tvVp/F (typical value, peripheral compartment distribution volume)” value [1, 2] was 11.46 L and the “ω^2CLc/F (inter-individual variability)” value [1, 2] was 0.14. The “ω^2Ka1 (inter-individual variability)” value [1, 2] was 0.00, the “ω^2Ka2 (inter-individual variability)” value [1, 2] was 0.00 and the “ω^2Ka3 (inter-individual variability)” value [1, 2] was 1.74. The “ω^2Tlag (inter-individual variability)” value [1, 2] was 0.23, the “ω^2Vc/F (inter-individual variability)” value [1, 2] was 2.04 and the “dTlagdGender (quantitative correlation value between Tlag and gender)” value ([1]; final population PK model, Estimate, female = 1, male = 0) was 0.73. The “ε (residual error)” value ([1]; final population PK model, Estimate, log-additive error model) was 0.37, the Vc/F estimate [1, 3] was 10.3 L and the Vp/F estimate [1, 3] was 11.5 L. It also gave an AUC (clinical; both, 10 mg) of 432 ± 166 ng·h/mL, an AUC(0-inf) (clinical; both, 10 mg) of 456 ± 174 ng·h/mL and an AUCextrap (clinical; both, 10 mg) of 5.07 ± 9.42%. The Cmax (clinical; both, 10 mg) was 236.57 ± 97.86 ng/mL, the MRT (clinical; both, 10 mg) was 4.79 ± 1.7 h and the Tmax (clinical; both, 10 mg) was 3.71 ± 1.22 h. The Vd/F (clinical; both, 10 mg) was 53.9 ± 27.3 L, the half-life (clinical; both, 10 mg) was 1.55 ± 0.54 h and the Tmax (clinical; female) was 4.1 ± 1.15 h. For the same compound, the AUC (clinical; female, 10 mg) was 424 ± 176 ng·h/mL, the AUC(0-inf) (clinical; female, 10 mg) was 453 ± 181 ng·h/mL and the AUCextrap (clinical; female, 10 mg) was 4.38 ± 7.82%. For the same compound, the Cmax (clinical; female, 10 mg) was 260 ± 113 ng/mL, the MRT (clinical; female, 10 mg) was 5.25 ± 1.97 h and the Vd/F (clinical; female, 10 mg) was 54.3 ± 38.1 L. For the same compound, the half-life (clinical; female, 10 mg) was 1.48 ± 0.64 h, the AUC (clinical; male, 10 mg) was 439 ± 161 ng·h/mL and the AUC(0-inf) (clinical; male, 10 mg) was 459 ± 172 ng·h/mL. It also gave an AUCextrap (clinical; male, 10 mg) of 3.84 ± 4.01%, a Cmax (clinical; male, 10 mg) of 216 ± 79.6 ng/mL and an MRT (clinical; male, 10 mg) of 4.4 ± 1.36 h. It also gave a Tmax (clinical; male, 10 mg) of 3.38 ± 1.21 h, a Vd/F (clinical; male, 10 mg) of 53.5 ± 12.8 L and a half-life (clinical; male, 10 mg) of 1.6 ± 0.44 h. The “AUCinf (plasma concentrations normalized by body weight)” value (clinical; single oral 10 mg enteric-coated tablet, NCA, body weight normalized, Total (n = 45), mean ± SD) was 7.17 ± 3.34 ng·h/mL/kg, the EC50 (gastric pH; Homo sapiens, read-out: EC50 (plasma rabeprazole concentration required to achieve 50% of the Emax)) was 0.0516 µg/mL (≈ 0.143 µM) and the “E0 (basal pH effect in the stomach that occurs without rabeprazole)” value (gastric pH) was 2.50. For the same compound, the “Emax (maximal effect of increasing gastric pH by plasma rabeprazole level)” value (gastric pH) was 4.72 and the “γ (sigmoidicity factor)” value (gastric pH) was 5.04.
